Laboratory results from BigSolDB 2.1.

C=NCC#N
solubility (mole fraction)
Conditions	278.15 K	283.15 K	288.15 K	293.15 K	298.15 K	303.15 K	308.15 K	313.15 K	318.15 K	323.15 K
in ethanol	0.00175	0.00213	0.00253	0.00303	0.00357	0.00424	0.00501	0.00595	0.00695	0.00814
in methanol	0.00436	0.00516	0.00624	0.00747	0.00894	0.0107	0.0125	0.0145	0.0169	0.0196
in n-butanol	0.000479	0.000578	0.000686	0.000819	0.000985	0.00115	0.00139	0.00162	0.00191	0.00224
in n-propanol	0.00099	0.00125	0.00151	0.00183	0.00222	0.00266	0.00315	0.0037	0.00427	0.00499
in water	0.00083	0.000998	0.00119	0.00143	0.00171	0.00198	0.00235	0.00274	0.0032	0.00371
